PMC12351382, “Fibrinography and thrombography (thrombodynamics-4D) in atrial fibrillation assessment of direct oral anticoagulants in geriatrics patients aged 80 years and older receiving direct oral anticoagulant therapy” (Research and Practice in Thrombosis and Haemostasis, 2025)

How the values were obtained:
thrombin generation [1] = assay: Thrombodynamics-4D thrombography in pooled normal plasma (Cryocheck) spiked with DOACs; format: biochemical, human
Protocol: (§1) Frozen pooled normal plasma samples (Cryocheck-Cryopep) were spiked with increasing concentrations of DOACs (0-450 ng/mL), as previously described. […] were kindly provided by Bristol Myers Squibb/Pfizer, Bayer Healthcare, and Boehringer Ingelheim, respectively.
(§2) The TD-4D assay was performed centrally using the Thrombodynamics analyzer system (Hemacore, Diapharma) with the TD-4D PLS dedicated kit (Hemacore, Diapharma). The system simultaneously measures spatiotemporal parameters of fibrin clot formation (fibrinography) and TG process (thrombography) in a thin layer of unstirred plasma. Briefly, 120 μL of platelet-poor plasma is added to a microcuvette containing corn trypsin inhibitor to prevent contribution of contact phase activation, then 5 μL of phospholipid solution (manufacturer’s reagent) is added. After incubation for 15 minutes at 37 °C in the Thrombodynamics device, the mixture is transferred to a second microcuvette containing calcium ions, and then immediately transferred to the measurement cuvette. Finally, the activator insert, whose surface is coated with immobilized tissue factor (100 pmol/m^2), is then transferred to the cuvette. The process of fibrin clot formation is recorded in a time-lapse video-microscopy mode using a dark-field light scattering method. Simultaneously, the system monitors TG by fluorimetry, based on the ability of thrombin to cleave a fluorogenic substrate, 7-amino-4-methylcoumarin (AMC) bound to a short amino acid sequence (Arg-Gly-Gly). The rate of AMC formation is proportional to local thrombin concentration. The microcuvette is maintained at 37 °C and is illuminated with red (625 nm) or ultra-violet (365 nm) light emitting diodes. Clot growth is detected with red light scattering, while AMC fluorescence is detected with UV. Scattered red light and fluorescence passing through the macro lens are recorded by a charge-coupled device system. Images under red and blue light are acquired once per minute. […]
(§3) The following fibrinography parameters were recorded (see Supplementary Table 1): (i) lag time (Tlag, minutes); (ii) initial rate of clot growth (Vi, μm/min); (iii) rate of clot growth (V, μm/min); (iv) clot size (CS, μm) measured at 30 minutes; (v) clot density (D, arbitrary units); (vi) time to spontaneous clotting (Tsp, minutes). The following thrombography parameters (at the near-activator area) were recorded (see Supplementary Table 1): (i) Tlag (minutes); (ii) time to thrombin peak (minutes); (iii) maximal thrombin concentration (ie, thrombin peak height, Cmax_ATG, AU/L); (iv) endogenous thrombin potential (ETP_ATG, AU⋅min/L); (v) stationary amplitude of moving peak of thrombin (Ast, AU/L); (vi) rate of thrombin peak propagation (μm/min; see Supplementary Videos 1–3).

thrombin generation [2] = assay: Thrombodynamics-4D thrombography in plasma samples from ADAGE patients on DOACs; format: in vivo, human; settings: for ETP (endogenous thrombin potential, ETP_ATG), median (IQR) / ETP (endogenous thrombin potential, ETP_ATG), range / Thrombin peak height (Cmax_ATG), median (IQR) / Thrombin peak height (Cmax_ATG), range / Thrombography Tlag (Lag_ATG), median (IQR) / Thrombography Tlag (Lag_ATG), range / Time to peak (Tmax_ATG), median (IQR) / Time to peak (Tmax_ATG), range: ADAGE patients, reduced dose (regimens as E1)
From the text: (§4) ADAGE is an academic, prospective, observational multicenter study (NCT 02464488; for details, see Foulon-Pinto et al.). We recruited hospitalized patients from the university hospital’s geriatric department (Assistance Publique-Hôpitaux de Paris, Paris, France). […] The DOAC dose regimen was at the discretion of the physician. Exclusion criteria included any acute, unstable comorbid condition or an estimated life expectancy of a few weeks. Sampling (see below) and last DOAC intake times were recorded on a standardized request form. Sampling time points were at the discretion of the physicians over a period of 20 days following inclusion. Time points were classified according to the time elapsed from the last oral intake (T, hours) for patients receiving rivaroxaban. T1 to T4 corresponded to peak time (Tmax), and T20 to T24 corresponded to trough (Tmin). […] Physicians prospectively collected demographic, clinical, and laboratory data (including creatinine clearance [CrCl] calculated with the Cockcroft–Gault formula). The study was approved by the institutionnel Ethics Committee (Comité consultatif de protection des personnes pour la recherche biomédicale–Île-de-France-6–number 15.074bis). All participants gave written informed consent to participate in the study. Only patients for whom remaining plasma aliquots were available were included in the present study.
(§5) Tubes were sent to each centre’s laboratory within 2 hours after sampling and immediately double-centrifuged for 15 minutes at 2000 × g at 15 to 22 °C to obtain platelet-poor plasma. Plasma samples (500 μL aliquots) were stored at −80 °C prior to shipment on dry ice for central analysis (Haematology Laboratory, Hôpital Lariboisière). Plasma samples were thawed for 3 to 5 minutes in a 37 °C water bath just before testing.
as §2, with “minute. The whole analysis lasts 1 hour. The Thrombodynamics software (Hemacore, Diapharma) calculates parameters of spatiotemporal dynamics of fibrin clot formation and TG [40, 46].” for “minute.”

fibrin clot formation [3] = assay: Thrombodynamics-4D fibrinography in plasma samples from ADAGE patients on DOACs; format: in vivo, human; settings: for CS (clot size at 30 minutes), median (IQR) / CS (clot size at 30 minutes), range / D (clot density), median (IQR) / D (clot density), range / Fibrinography Tlag (lag time), median (IQR) / Fibrinography Tlag (lag time), range / Initial rate of clot growth (Vi), median (IQR) / Initial rate of clot growth (Vi), range / Time to Tsp (spontaneous clotting), median (IQR) / Time to Tsp (spontaneous clotting), range: ADAGE patients, reduced dose (regimens as E1)
From the text: as §4, §5
as §2, with “minute. The whole analysis lasts 1 hour. The Thrombodynamics software (Hemacore, Diapharma) calculates parameters of spatiotemporal dynamics of fibrin clot formation and TG [40, 46].” for “minute.”

[4] = Plasma DOAC concentration in ADAGE patients (chromogenic anti-FXa assay for rivaroxaban and apixaban; anti-FIIa Hemoclot assay for dabigatran); format: in vivo, human; settings: for DOAC concentration, range: ADAGE patients, reduced dose (regimens as E1)
From the text: as §4, §5
Dedicated calibrations and controls were used. The lower limit of quantification was 20 ng/mL for the 3 assays.

fibrin clot formation [5] = assay: Thrombodynamics-4D fibrinography in pooled normal plasma (Cryocheck) spiked with DOACs; format: biochemical, human; settings: 0 to 1000 nM, mainly at low DOAC concentrations
Protocol: as §1
The TD-4D assay was performed centrally using the Thrombodynamics analyzer system (Hemacore, Diapharma) with the TD-4D PLS dedicated kit (Hemacore, Diapharma). The system simultaneously measures spatiotemporal parameters of fibrin clot formation (fibrinography) and TG process (thrombography) in a thin layer of unstirred plasma. Briefly, 120 μL of platelet-poor plasma is added to a microcuvette containing corn trypsin inhibitor to prevent contribution of contact phase activation, then 5 μL of phospholipid solution (manufacturer’s reagent) is added. […] The process of fibrin clot formation is recorded in a time-lapse video-microscopy mode using a dark-field light scattering method. […] Clot growth is detected with red light scattering, while AMC fluorescence is detected with UV. Scattered red light and fluorescence passing through the macro lens are recorded by a charge-coupled device system. […]
as §3

[6] = univariate analysis, Tmax, line marked Halving
[7] = univariate analysis, Tmin, line marked Halving
[8] = all ADAGE patient samples, Spearman
[9] = all ADAGE patient samples, any time point and dose

DOAC concentration, range ([4]; Tmax (peak)): 69 to 442 ng/mL
DOAC concentration, range ([4]; Tmin (trough)): 20 to 240 ng/mL
DOAC plasma concentration, lower end of range [4, 9]: < 20 ng/mL
DOAC plasma concentration, upper end of range [4, 9]: 547 ng/mL
SMILES: COc1ccc(-n2nc(C(N)=O)c3c2C(=O)N(c2ccc(N4CCCCC4=O)cc2)CC3)cc1 [Apixaban]
Change of Ast (stationary amplitude of thrombin moving peak) with increasing concentrations (thrombin generation [1]): decreased
ETP (endogenous thrombin potential, ETP_ATG), median (IQR) (thrombin generation [2]; Tmax (peak)): 1698 (1280-1961) AU⋅min/L
ETP (endogenous thrombin potential, ETP_ATG), range (thrombin generation [2]; Tmax (peak)): 971-3095 AU⋅min/L
Thrombin peak height (Cmax_ATG), median (IQR) (thrombin generation [2]; Tmax (peak)): 309 (240-395) AU/L
Thrombin peak height (Cmax_ATG), range (thrombin generation [2]; Tmax (peak)): 206-507 AU/L
Thrombography Tlag (Lag_ATG), median (IQR) (thrombin generation [2]; Tmax (peak)): 0.3 (0.2-0.6) min
Thrombography Tlag (Lag_ATG), range (thrombin generation [2]; Tmax (peak)): 0.1 to 1.3 min
Time to peak (Tmax_ATG), median (IQR) (thrombin generation [2]; Tmax (peak)): 2.1 (2.1-2.6) min
Time to peak (Tmax_ATG), range (thrombin generation [2]; Tmax (peak)): 1.2 to 4.6 min
ETP (endogenous thrombin potential, ETP_ATG), median (IQR) (thrombin generation [2]; Tmin (trough)): 1711 (1436-1978) AU⋅min/L
ETP (endogenous thrombin potential, ETP_ATG), range (thrombin generation [2]; Tmin (trough)): 924-2958 AU⋅min/L
Thrombin peak height (Cmax_ATG), median (IQR) (thrombin generation [2]; Tmin (trough)): 325 (292-379) AU/L
Thrombin peak height (Cmax_ATG), range (thrombin generation [2]; Tmin (trough)): 158-511 AU/L
Thrombography Tlag (Lag_ATG), median (IQR) (thrombin generation [2]; Tmin (trough)): 0.2 (0.2-0.6) min
Thrombography Tlag (Lag_ATG), range (thrombin generation [2]; Tmin (trough)): 0.1 to 1.0 min
Time to peak (Tmax_ATG), median (IQR) (thrombin generation [2]; Tmin (trough)): 2.1 (2.1-2.1) min
Time to peak (Tmax_ATG), range (thrombin generation [2]; Tmin (trough)): 1.6 to 3.6 min
Change of ETP_ATG with increasing DOAC plasma concentrations (thrombin generation [2]; all ADAGE patient samples): decreased
Effect of DOAC concentration at Tmax (βC.pic) on thrombography peak height (PH) (thrombin generation [2]; [6]): ≈ 0.07471%
Effect of DOAC concentration at Tmin (βC.res) on thrombography peak height (PH) (thrombin generation [2]; [7]): ≈ 0.1698%
CS (clot size at 30 minutes), median (IQR) (fibrin clot formation [3]; Tmax (peak)): 1362 (1317-1698) μm
CS (clot size at 30 minutes), range (fibrin clot formation [3]; Tmax (peak)): 1134-1857 μm
D (clot density), median (IQR) (fibrin clot formation [3]; Tmax (peak)): 25,340 (22,600-27,790) a.u.
D (clot density), range (fibrin clot formation [3]; Tmax (peak)): 14,090-34,880 a.u.
Fibrinography Tlag (lag time), median (IQR) (fibrin clot formation [3]; Tmax (peak)): 1.3 (1.2-1.4) min
Fibrinography Tlag (lag time), range (fibrin clot formation [3]; Tmax (peak)): 0.9 to 2.3 min
Initial rate of clot growth (Vi), median (IQR) (fibrin clot formation [3]; Tmax (peak)): 64.9 (60.9-74.2) μm/min
Initial rate of clot growth (Vi), range (fibrin clot formation [3]; Tmax (peak)): 56.1- 95.5 μm/min
Time to Tsp (spontaneous clotting), median (IQR) (fibrin clot formation [3]; Tmax (peak)): 22.9 (12.1-31.1) min
Time to Tsp (spontaneous clotting), range (fibrin clot formation [3]; Tmax (peak)): 6.8 to 48.2 min
CS (clot size at 30 minutes), median (IQR) (fibrin clot formation [3]; Tmin (trough)): 1655 (1395-1780) μm
CS (clot size at 30 minutes), range (fibrin clot formation [3]; Tmin (trough)): 1170-2147 μm
D (clot density), median (IQR) (fibrin clot formation [3]; Tmin (trough)): 25,470 (21,190-29,910) a.u.
D (clot density), range (fibrin clot formation [3]; Tmin (trough)): 15,530-37,550 a.u.
Fibrinography Tlag (lag time), median (IQR) (fibrin clot formation [3]; Tmin (trough)): 1.1 (1.0-1.3) min
Fibrinography Tlag (lag time), range (fibrin clot formation [3]; Tmin (trough)): 0.7 to 1.8 min
Initial rate of clot growth (Vi), median (IQR) (fibrin clot formation [3]; Tmin (trough)): 68.3 (64.8-76.2) μm/min
Initial rate of clot growth (Vi), range (fibrin clot formation [3]; Tmin (trough)): 54.6-88.8 μm/min
Time to Tsp (spontaneous clotting), median (IQR) (fibrin clot formation [3]; Tmin (trough)): 23.0 (12.8-28.1) min
Time to Tsp (spontaneous clotting), range (fibrin clot formation [3]; Tmin (trough)): 6.8 to 46.7 min
Change of CS (clot size) with increasing concentrations (fibrin clot formation [3]; all ADAGE patient samples): decreased
Association of D (clot density) with DOAC concentration (fibrin clot formation [3]; [8]): not
Relationship between time to spontaneous clot formation (Tsp) and DOAC levels (fibrin clot formation [3]; [8]): no relationship
Effect of DOAC concentration at Tmax (βC.pic) on fibrinography initial velocity of clot formation (fibrin clot formation [3]; [6]): ≈ 0.02018%
Effect of DOAC concentration at Tmin (βC.res) on fibrinography initial velocity of clot formation (fibrin clot formation [3]; [7]): ≈ 0.04558%
Samples in which spontaneous clotting occurred (fibrin clot formation [5]): 14%
